# Source: the supplement of paper PMC10307832
# Experiments:
# Experiment in all cases: relative viability (nuclei count vs DMSO), 5 days (fraction); higher = more cells survive
# NCI-H647 = test system: NCI-H647
# In short: (§1)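 Values are medians from duplicate plates. Each reflects relative viability, defined as the nuclei count of treated wells over that of vehicle wells. Lung cancer cell lines in 1536-well plates were pin-tool dosed one day after seeding with one drug alone or with a fixed anchor-drug dose plus five library-drug doses (not always all listed) in √10 steps, then fixed, stained and imaged at 4× after 5 days.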
# EPLC-272H = test system: EPLC-272H
# In short: as §1
# LCLC-97TM1 = test system: LCLC-97TM1
# In short: as §1
# EMC-BAC-2 = test system: EMC-BAC-2
# In short: as §1
# NCI-H2347 = test system: NCI-H2347
# In short: as §1
# NCI-H1993 = test system: NCI-H1993
# In short: as §1
# NCI-H322M = test system: NCI-H322M
# In short: as §1
# NCI-H2126 = test system: NCI-H2126
# In short: as §1
# NCI-H727 = test system: NCI-H727
# In short: as §1
# NCI-H2085 = test system: NCI-H2085
# In short: as §1
# NCI-H1915 = test system: NCI-H1915
# In short: as §1
# H3255 = test system: H3255
# In short: as §1
# PC-14 = test system: PC-14
# In short: as §1
# NCI-H1734 = test system: NCI-H1734
# In short: as §1
# HOP-62 = test system: HOP-62
# In short: as §1
# LXF-289 = test system: LXF-289
# In short: as §1
structure (smiles),measurement,setting,value
CCN(CC)CCCCNc1ncc2cc(-c3cc(OC)cc(OC)c3)c(NC(=O)NC(C)(C)C)nc2n1 + NC(=O)Nc1cc(-c2cccc(F)c2)sc1C(=O)N[C@H]1CCCNC1 [AZD7762] (partner 0.2 µM),relative viability,NCI-H647; first compound 0.01 µM,0.272
same,relative viability,NCI-H647; first compound 0.03162 µM,0.612
same,relative viability,NCI-H647; first compound 0.1 µM,0.495
same,relative viability,NCI-H647; first compound 0.3162 µM,0.476
same,relative viability,NCI-H647; first compound 1 µM,0.247
same,relative viability,EPLC-272H; first compound 0.01 µM,0.199
same,relative viability,EPLC-272H; first compound 0.1 µM,0.36
same,relative viability,EPLC-272H; first compound 0.3162 µM,0.188
same,relative viability,EPLC-272H; first compound 1 µM,0.198
same,relative viability,LCLC-97TM1; first compound 0.03162 µM,0.384
same,relative viability,LCLC-97TM1; first compound 0.1 µM,0.275
same,relative viability,LCLC-97TM1; first compound 0.3162 µM,0.234
same,relative viability,LCLC-97TM1; first compound 1 µM,0.227
same,relative viability,EMC-BAC-2; first compound 0.03162 µM,1.14
same,relative viability,EMC-BAC-2; first compound 0.1 µM,1.3
same,relative viability,EMC-BAC-2; first compound 0.3162 µM,1.16
same,relative viability,EMC-BAC-2; first compound 1 µM,1.07
same,relative viability,NCI-H2347; first compound 0.01 µM,0.737
same,relative viability,NCI-H2347; first compound 0.03162 µM,0.622
same,relative viability,NCI-H2347; first compound 0.1 µM,0.842
same,relative viability,NCI-H2347; first compound 0.3162 µM,0.748
same,relative viability,NCI-H2347; first compound 1 µM,0.684
same,relative viability,NCI-H1993; first compound 0.01 µM,0.896
same,relative viability,NCI-H1993; first compound 0.03162 µM,0.708
same,relative viability,NCI-H1993; first compound 0.1 µM,0.721
same,relative viability,NCI-H1993; first compound 0.3162 µM,0.97
same,relative viability,NCI-H1993; first compound 1 µM,0.869
same,relative viability,NCI-H322M; first compound 0.01 µM,0.578
same,relative viability,NCI-H322M; first compound 0.03162 µM,0.52
same,relative viability,NCI-H322M; first compound 0.1 µM,0.59
same,relative viability,NCI-H322M; first compound 0.3162 µM,0.728
same,relative viability,NCI-H322M; first compound 1 µM,0.559
same,relative viability,NCI-H2126; first compound 0.01 µM,0.976
same,relative viability,NCI-H2126; first compound 0.03162 µM,1
same,relative viability,NCI-H2126; first compound 0.1 µM,1.15
same,relative viability,NCI-H2126; first compound 0.3162 µM,1.13
same,relative viability,NCI-H2126; first compound 1 µM,1.01
same,relative viability,NCI-H727; first compound 0.01 µM,0.766
same,relative viability,NCI-H727; first compound 0.03162 µM,0.63
same,relative viability,NCI-H727; first compound 0.1 µM,0.677
same,relative viability,NCI-H727; first compound 0.3162 µM,0.791
same,relative viability,NCI-H727; first compound 1 µM,0.667
same,relative viability,NCI-H2085; first compound 0.01 µM,0.991
same,relative viability,NCI-H2085; first compound 0.03162 µM,1.05
same,relative viability,NCI-H2085; first compound 0.1 µM,1.05
same,relative viability,NCI-H2085; first compound 0.3162 µM,1.04
same,relative viability,NCI-H2085; first compound 1 µM,0.912
same,relative viability,NCI-H1915; first compound 0.01 µM,0.655
same,relative viability,NCI-H1915; first compound 0.03162 µM,0.753
same,relative viability,NCI-H1915; first compound 0.1 µM,0.708
same,relative viability,NCI-H1915; first compound 0.3162 µM,0.757
same,relative viability,NCI-H1915; first compound 1 µM,0.736
same,relative viability,H3255; first compound 0.01 µM,0.84
same,relative viability,H3255; first compound 0.03162 µM,0.909
same,relative viability,H3255; first compound 0.1 µM,0.911
same,relative viability,H3255; first compound 0.3162 µM,1.11
same,relative viability,H3255; first compound 1 µM,0.855
same,relative viability,PC-14; first compound 0.01 µM,0.352
same,relative viability,PC-14; first compound 0.03162 µM,0.347
same,relative viability,PC-14; first compound 0.1 µM,0.568
same,relative viability,PC-14; first compound 0.3162 µM,0.497
same,relative viability,PC-14; first compound 1 µM,0.316
same,relative viability,NCI-H1734; first compound 0.01 µM,0.534
same,relative viability,NCI-H1734; first compound 0.03162 µM,0.593
same,relative viability,NCI-H1734; first compound 0.1 µM,0.52
same,relative viability,NCI-H1734; first compound 0.3162 µM,0.604
same,relative viability,NCI-H1734; first compound 1 µM,0.486
same,relative viability,HOP-62; first compound 0.01 µM,0.343
same,relative viability,HOP-62; first compound 0.03162 µM,0.666
same,relative viability,HOP-62; first compound 0.1 µM,0.939
same,relative viability,HOP-62; first compound 0.3162 µM,0.684
same,relative viability,HOP-62; first compound 1 µM,0.431
same,relative viability,LXF-289; first compound 0.01 µM,1.07
same,relative viability,LXF-289; first compound 0.03162 µM,1.18
same,relative viability,LXF-289; first compound 0.1 µM,1.16
same,relative viability,LXF-289; first compound 0.3162 µM,0.946
same,relative viability,LXF-289; first compound 1 µM,0.956
O=c1cc(N2CCOCC2)oc2c(-c3cccc4c3sc3ccccc34)cccc12 + NC(=O)Nc1cc(-c2cccc(F)c2)sc1C(=O)N[C@H]1CCCNC1 [AZD7762] (partner 0.2 µM),relative viability,NCI-H647; first compound 0.01 µM,0.371
same,relative viability,NCI-H647; first compound 0.03162 µM,0.486
same,relative viability,NCI-H647; first compound 0.1 µM,0.0676
same,relative viability,NCI-H647; first compound 0.3162 µM,0.515
same,relative viability,NCI-H647; first compound 1 µM,0.363
same,relative viability,EPLC-272H; first compound 0.01 µM,0.244
same,relative viability,EPLC-272H; first compound 0.03162 µM,0.282
same,relative viability,EPLC-272H; first compound 0.1 µM,0.12
same,relative viability,EPLC-272H; first compound 0.3162 µM,0.31
same,relative viability,EPLC-272H; first compound 1 µM,0.211
same,relative viability,LCLC-97TM1; first compound 0.01 µM,0.215
same,relative viability,LCLC-97TM1; first compound 0.03162 µM,0.353
same,relative viability,LCLC-97TM1; first compound 0.1 µM,0.0724
same,relative viability,LCLC-97TM1; first compound 0.3162 µM,0.349
same,relative viability,LCLC-97TM1; first compound 1 µM,0.22
same,relative viability,EMC-BAC-2; first compound 0.01 µM,1.09
same,relative viability,EMC-BAC-2; first compound 0.03162 µM,1.17
same,relative viability,EMC-BAC-2; first compound 0.1 µM,1.19
same,relative viability,EMC-BAC-2; first compound 0.3162 µM,1.14
same,relative viability,EMC-BAC-2; first compound 1 µM,1.11
same,relative viability,NCI-H2347; first compound 0.01 µM,0.843
same,relative viability,NCI-H2347; first compound 0.03162 µM,0.791
same,relative viability,NCI-H2347; first compound 0.1 µM,0.601
same,relative viability,NCI-H2347; first compound 0.3162 µM,0.714
same,relative viability,NCI-H2347; first compound 1 µM,0.601
same,relative viability,NCI-H1993; first compound 0.01 µM,0.832
same,relative viability,NCI-H1993; first compound 0.03162 µM,0.764
same,relative viability,NCI-H1993; first compound 0.1 µM,0.779
same,relative viability,NCI-H1993; first compound 0.3162 µM,0.692
same,relative viability,NCI-H1993; first compound 1 µM,0.715
same,relative viability,NCI-H322M; first compound 0.01 µM,0.578
same,relative viability,NCI-H322M; first compound 0.03162 µM,0.589
same,relative viability,NCI-H322M; first compound 0.3162 µM,0.595
same,relative viability,NCI-H322M; first compound 1 µM,0.581
same,relative viability,NCI-H2126; first compound 0.01 µM,0.982
same,relative viability,NCI-H2126; first compound 0.03162 µM,0.97
same,relative viability,NCI-H2126; first compound 0.1 µM,1.12
same,relative viability,NCI-H2126; first compound 0.3162 µM,0.981
same,relative viability,NCI-H2126; first compound 1 µM,1.02
same,relative viability,NCI-H727; first compound 0.01 µM,0.583
same,relative viability,NCI-H727; first compound 0.03162 µM,0.486
same,relative viability,NCI-H727; first compound 0.1 µM,0.423
same,relative viability,NCI-H727; first compound 0.3162 µM,0.596
same,relative viability,NCI-H727; first compound 1 µM,0.575
same,relative viability,NCI-H2085; first compound 0.01 µM,1
same,relative viability,NCI-H2085; first compound 0.03162 µM,1.02
same,relative viability,NCI-H2085; first compound 0.1 µM,0.887
same,relative viability,NCI-H2085; first compound 0.3162 µM,1.05
same,relative viability,NCI-H2085; first compound 1 µM,1.01
same,relative viability,NCI-H1915; first compound 0.01 µM,0.763
same,relative viability,NCI-H1915; first compound 0.03162 µM,0.725
same,relative viability,NCI-H1915; first compound 0.1 µM,0.731
same,relative viability,NCI-H1915; first compound 0.3162 µM,0.658
same,relative viability,NCI-H1915; first compound 1 µM,0.675
same,relative viability,H3255; first compound 0.01 µM,0.901
same,relative viability,H3255; first compound 0.03162 µM,0.933
same,relative viability,H3255; first compound 0.1 µM,0.845
same,relative viability,H3255; first compound 0.3162 µM,0.822
same,relative viability,H3255; first compound 1 µM,0.852
same,relative viability,PC-14; first compound 0.01 µM,0.306
same,relative viability,PC-14; first compound 0.03162 µM,0.322
same,relative viability,PC-14; first compound 0.1 µM,0.116
same,relative viability,PC-14; first compound 0.3162 µM,0.516
same,relative viability,PC-14; first compound 1 µM,0.27
same,relative viability,NCI-H1734; first compound 0.01 µM,0.604
same,relative viability,NCI-H1734; first compound 0.03162 µM,0.568
same,relative viability,NCI-H1734; first compound 0.1 µM,0.112
same,relative viability,NCI-H1734; first compound 0.3162 µM,0.596
same,relative viability,NCI-H1734; first compound 1 µM,0.494
same,relative viability,HOP-62; first compound 0.01 µM,0.514
same,relative viability,HOP-62; first compound 0.03162 µM,0.574
same,relative viability,HOP-62; first compound 0.1 µM,0.188
same,relative viability,HOP-62; first compound 0.3162 µM,0.745
same,relative viability,HOP-62; first compound 1 µM,0.689
same,relative viability,LXF-289; first compound 0.01 µM,1.11
same,relative viability,LXF-289; first compound 0.03162 µM,1.08
same,relative viability,LXF-289; first compound 0.1 µM,0.75
same,relative viability,LXF-289; first compound 0.3162 µM,1.2
same,relative viability,LXF-289; first compound 1 µM,1.21
